According to patent US20260345593A1, “ORAL FORMULATION OF N-PYRIDINYL ACETAMIDE DERIVATIVE FOR TREATING INTERSTITIAL LUNG DISEASE” (AstraZeneca AB, priority 2022, published 2026):
Read-outs that look alike come from different tables or passages of the source.

What was measured:
[1] = Example 1, first clinical study: pharmacokinetics in healthy subjects; type: in vivo, human; conditions: for half-life / Tmax: in vivo; for half-life: read-out: geometric mean terminal half-life
Description: This study is in two parts—part 1 involves testing a single ascending dose, whilst part 2 involves testing multiple ascending doses.
Part 1 comprises a Screening Period of a maximum of 6 weeks. This is followed by a Treatment Period during which subjects are resident at the Clinical Unit from 1 day before investigational medicinal product (IMP) administration (Day −1) until at least 72 hours after IMP administration (Day 4). Subjects receive a single oral dose of AZD5055 or placebo on Day 1. This is followed by a Follow-up Visit within 6±1 day after the IMP dose.
Part 2 comprises a Screening Period of a maximum of 6 weeks. This is followed by a treatment period during which subjects are resident at the Clinical Unit from 1 day before IMP administration (Day −1) until at least 72 hours after the last dose given on Day 16 (Day 19). Subjects are dosed for a total of 15 days and receive a single once daily morning dose of AZD5055 or placebo on Day 1 and on Days 3 through Day 16, with no dosing on Day 2. This is followed up a Follow-up Visit within 6±1 day after the IMP dose, and an additional Follow-up Visit within 29±2 days after the last IMP dose.
For cohorts with QD dosing regimens, the Screening Period is followed by a Treatment Period during which subjects are resident at the Clinical Unit from 1 day before IMP administration (Day −1) until at least 72 hours after the last dose given on Day 16 (Day 19). Subjects are dosed for a total of 15 days, receiving a single QD morning dose of AZD5055 or placebo on Day 1 and on Days 3 through Day 16.
For cohorts with BID dosing regimens, the Screening Period is followed by a Treatment Period during which subjects are resident at the Clinical Unit from 1 day before IMP administration (Day −1) until at least 72 hours after the last dose given on Day 16 (Day 19).
Subjects are dosed for a total of 15 days, receiving a single morning dose of AZD5055 or placebo on Day 1 and Day 16, and repeated BID dosing on Day 3 through Day 15, 12 hours (±30 minutes) apart.
The study was conducted in healthy male and healthy female subjects of non-childbearing potential with suitable veins for cannulation or repeated venipuncture. […] Also, the subjects were aged 18 to 55 years inclusive for men and women in Part 1 and only men in Part 2. For female subjects in Part 2, the age range was 18 to 49 years inclusive.
In Part 1 of the study, 3 dose levels of AZD5055 were investigated in 3 cohorts. Each cohort included 8 subjects. Within each cohort, 6 subjects were randomized to receive AZD5055, and 2 subjects were randomized to receive placebo. In Part 2 of the study, 3 dose levels of AZD5055 were investigated in 3 cohorts. In each cohort, 9 subjects were randomized to receive AZD5055, and 3 subjects were randomized to receive placebo.
Primary PK parameters: Cmax, AUCinf, and AUClast; secondary PK parameters: including but not limited to tmax, AUC (0-12) or AUC (0-24) (the one not being the primary parameter), t1/2λz, MRTinf, CL/F, Vz/F, Rac, TCP, Ae(t1-t2), fe (t1-t2), and CLR.
No formal statistical hypothesis testing was performed. The analyses of safety, tolerability, PK, and PD data was summarized descriptively by treatment/dose/study day separately using appropriate descriptive statistics including tables, listings, and graphs, as appropriate. Preliminary dose proportionality of AZD5055 after single dose (Day 1) in Part 1 and 2 and multiple dose (Day 16) in Part 2 was assessed graphically and was analyzed using the power model approach with the logarithm of PK parameters (AUC and Cmax on Day 1) and (AUC(0-τ) and Cmax on Day 16) as the dependent variable and the logarithm of the dose as the independent variable. For data collected in Part 2, the time dependency of the PK was evaluated by comparing AUC(0-τ) (Day 16) with AUC (Day 1) and accumulation was evaluated by comparing AUC(0-τ) (Day 16) with AUC(0-τ) (Day 1) and Cmax (Day 16) with Cmax (Day 1). […]

CYP3A4 = experiment: Example 1: 4-β-hydroxy-cholesterol levels in blood (CYP3A4 activity); type: in vivo, human; conditions: healthy subjects
From the text: Change from baseline in 4-β-hydroxy-cholesterol levels in blood.
Plasma 4-β-hydroxy-cholesterol levels at baseline and the last day of dosing were statistically analyzed using a linear mixed model analysis of covariance with treatment as a fixed effect and the baseline concentration of 4-β-hydroxy-cholesterol as covariate.

[2] = predicted human absorption, clearance and bioavailability
Description: Based on in vitro data, the predicted human oral bioavailability is 70%. The observed oral bioavailability in several animal species is in the range 40% to 60%.
Therefore, a conservative estimate is that Cmax following an IV infusion over 20 minutes is less than 2-fold higher compared to an oral dose, after correcting for F.

β-catenin reporter = β-catenin reporter assay, rodent cells (Bunyard 2019); read-out: in vitro IC50; cited from earlier work
[3] = tested on: carbon tetrachloride-induced hepatic fibrosis in mice; conditions: mice (Bunyard 2019); cited from earlier work

## Cc1cc(-c2nccc3c2ccn3CC(=O)Nc2ccc(-c3cnccn3)cn2)ccn1 [AZD5055, 2-[4-(2-methyl-4-pyridyl)pyrrolo[3,2-c]pyridin-1-yl]-N-(5-pyrazin-2-yl-2-pyridyl)acetamide]
[1]; 5 to 40 mg, single and multiple dose
  dose proportionality of exposure: increased approximately proportionally
[1]; human, po, multiple daily administration
  half-life: 12.2 to 17.2 h
[1]; human, po, multiple daily doses of 5 to 20 mg, read-out: tmax (medians)
  Tmax: 1 to 1.3 h
[1]; human, po, observed, oral dose, read-out: tmax (time to Cmax)
  Tmax: 1 h
[1]; human, po, single administration
  half-life: 9.7 to 11.4 h
[1]; human, urine, po, percent of dose administered, read-out: dose recovered unchanged in urine
  dose excreted: < 2.3%
[1]; low
  between-subject variability in Cmax: < 25%
[1]; oral
  decline of concentrations: declined in a bi-phasic manner
  renal clearance share of total clearance: small share of AZD5055 total clearance
[1]; oral suspension, single ascending doses of 7 to 40 mg
  absorption: rapidly absorbed
[1]; repeat daily administration
  accumulation: Little to moderate accumulation
CYP3A4; 14 days of once daily dosing
  effect on 4-β-hydroxy-cholesterol: no effect on 4-β-hydroxy-cholesterol
CYP3A4; inferred from 4-β-hydroxy-cholesterol
  effect on CYP3A4 activity: no significant effect on CYP3A4 activity
[2]; conservative estimate, after correcting for F
  Cmax after 20-minute IV infusion relative to oral dose: less than 2 fold
[2]; estimated from tmax of 1 hour, oral
  dose absorbed within 20 minutes: approximately 75%
β-catenin reporter
  IC50: 0.64 nM
[3]
  carbon tetrachloride-induced hepatic fibrosis: reduces
